# Tested on: human Burkitt lymphoma Raji cells
# Test: Test Example 5: effect on cytotoxic activity of rituximab and complement, PI flow cytometry (FIG. 1)
# Format: cell-based
# Conditions: rituximab + 10% human normal serum (AB type), sample 1.0 mg/ml final, 1 hour
# Source text: The lactoferrin hydrolysate mixture prepared in Preparation Example 1 was used as Sample A, and the lactoferrin hydrolyzed peptide (lactoferrin partial peptide) prepared in Preparation Example 2 was used as Sample B. Moreover, as control samples, commercially available bovine lactoferrin (Morinaga Milk Industry Co., Ltd.) was used as Control A, and protamine sulfate was used as Control B.
# Raji cells in the logarithmic growth phase were used as target cells. Raji cells collected by centrifugation of a cell suspension were suspended in fresh culture broth (RPMI 1640, 10% FCS), counted and then added to a 24-well plate in an amount of 1.0×10^5 cells/well. To each well, rituximab ([…]) and 1.0 mg/ml as a final concentration of Sample A, Sample B, Control A or Control B (or Medium [culture broth] instead of the sample) were added, and then human normal serum (AB type) was added at a final concentration of 10%. Then, the cells were cultured in a CO2 incubator for 1 hour, and PI (propidium iodide, 1 mg/ml) was added during the last 15 minutes of the culture. […] The Raji cells that died during the culture were counted by analyzing the suspension with a flow cytometer (FACScan) utilizing the fact that dead cells are positive in the nuclear staining with PI.
# In this test, the cytotoxic activity was calculated in accordance with the following equation. […]
substance,measurement,value
protamine sulfate [Control B],cytotoxic activity [number of dead cells (%)] relative to Medium (culture broth),such increase of the activity was not observed

# — patent US7419667B2, “Drug for cancer therapy” (Morinaga Milk Industry Co. Ltd., priority 2004, dated 2008)
